Values quoted from earlier work as cited in patent US6660719B2, “Inhibiting T-Cell proliferation” (BioCryst Pharmaceuticals Inc., priority 2001, dated 2003).
Read-outs that look alike come from different tables or passages of the source.

How the values were obtained:
[1] = test system: peripheral blood lymphocytes; conditions: 2′-deoxyguanosine alone, without PNP inhibition; species not given
T-cells = conditions: rats; given with 2′-deoxyguanosine
[2] = test system: peripheral blood lymphocytes; conditions: given to rats with 2′-deoxyguanosine
[3] = test system: peripheral blood lymphocytes; conditions: given to dogs with 2′-deoxyguanosine
Molt-4 cells = conditions: given with 2′-deoxyguanosine
CCRF-CEM cells = conditions: given with 2′-deoxyguanosine

## Nc1nc2c(ncn2[C@H]2C[C@H](O)[C@@H](CO)O2)c(=O)[nH]1 [2′-deoxyguanosine]
[1]
  cell counts (lymphopenia): did not significantly decrease cell counts

## Nc1nc2c(nc(N)n2[C@@H]2O[C@H](CO)[C@@H](O)[C@H]2O)c(=O)[nH]1 [8-Aminoguanosine]
T-cells
  levels of 2′-deoxyguanosine triphosphate (dGTP) in T-cells: increased levels
[2]
  peripheral blood lymphocytes: profound fall
[3]
  peripheral blood lymphocytes: profound fall

## Nc1nc2nc(N)[nH]c2c(=O)[nH]1 [8-Aminoguanine]
Molt-4 cells
  proliferation of human T-cells in cultures: inhibits the proliferation
CCRF-CEM cells
  proliferation of human T-cells in cultures: inhibits the proliferation
